Some test systems named below: A498; CAKI-1; HL-60; HT-29; Hs-578T; KM12; M14; MCF7; MDA-MB-435; NCI-H460; NCI-H522; OVCAR-3; OVCAR-5; RXF 393; SN12C; SR; SW-620; TK-10; IGROV-1; SK-MEL-2.
Holding throughout (experiment): inhibition of tumour cell growth, NCI panel, 48 h

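Following 48 hours of exposure in 96-well plates, responses at five concentrations were used to interpolate endpoints linearly. Here, GI50 denotes the concentration required for 50% inhibition of growth.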 Calls of active or inactive are those of the source. Rule as the data show it: active = GI50 up to about 1.1 µM and inactive = higher.

Turning to `COc1ccc(/N=C2\C(=O)Nc3ccc(Br)cc32)cc1`, the GI50 in the assay on A498 is 38.8 µM (inactive); in the assay with CAKI-1, 14.4 µM (inactive); with HL-60, 15.6 µM (inactive); with HT-29, 23.4 µM (inactive); in the assay on Hs-578T, 41.5 µM (inactive); in the assay with KM12 it was 10.7 µM (inactive). For the same compound, the GI50 was 17.5 µM (inactive) with M14; 14.6 µM (inactive) with MCF7; 13.2 µM (inactive) with MDA-MB-435; 21.8 µM (inactive) in the assay on NCI-H460; 9.38 µM (inactive) with NCI-H522; 21.7 µM (inactive) in the assay with OVCAR-3. Moreover, the GI50 in the assay with OVCAR-5 is 23.2 µM (inactive); in the assay with RXF 393, 18.2 µM (inactive); in the assay on SN12C it was 17.2 µM (inactive); with SR, 3.58 µM (inactive); with SW-620, 16 µM (inactive); with TK-10 it was 23.6 µM (inactive).
Consider `Cc1cc(NC(=O)NC(=O)c2ccccc2NC(=O)CN(C)C)ccc1Oc1ncc(Br)cn1`, for which the GI50 was 0.929 µM (active) with A498; 3.68 µM (inactive) in the assay with CAKI-1; 0.658 µM (active) with HL-60; 1.61 µM (inactive) in the assay on HT-29; 1.6 µM (inactive) in the assay on Hs-578T; 6.27 µM (inactive) with IGROV-1. In addition, the GI50 with KM12 is 1.36 µM (inactive); with M14, 1.58 µM (inactive); in the assay with MCF7 it was 0.809 µM (active); in the assay with MDA-MB-435 it was 0.289 µM (active); in the assay on NCI-H460, 0.78 µM (active); in the assay with NCI-H522 it was 1.14 µM (inactive). Further, the GI50 with OVCAR-3 was 1.04 µM (active); in the assay with OVCAR-5 it was 15.1 µM (inactive); in the assay with RXF 393 it was 1.98 µM (inactive); in the assay on SK-MEL-2, 10.4 µM (inactive); with SN12C, 17.3 µM (inactive); in the assay on SR, 3.24 µM (inactive). Besides, the figures for the GI50 in the assay on SW-620 and in the assay with TK-10 were 2.02 µM (inactive) and 21.6 µM (inactive), respectively.
In the case of `CC(O)CNC1=CC(=O)C(=O)c2ccccc21` (centres undefined), the GI50 is 27.7 µM (inactive) in the assay on A498; 18.7 µM (inactive) with CAKI-1; 27.4 µM (inactive) in the assay with HL-60; 22.8 µM (inactive) in the assay with Hs-578T; 13.4 µM (inactive) with IGROV-1; 19.2 µM (inactive) with KM12. Also, the GI50 in the assay with M14 was 15.5 µM (inactive); in the assay on MCF7 it was 19.5 µM (inactive); with MDA-MB-435, 11.3 µM (inactive); in the assay with NCI-H460 it was 14.3 µM (inactive); in the assay with NCI-H522 it was 18.5 µM (inactive); in the assay on OVCAR-3, 3 µM (inactive). Moreover, the GI50 was 19.5 µM (inactive) in the assay on OVCAR-5; 35.4 µM (inactive) in the assay on RXF 393; 16.4 µM (inactive) in the assay with SK-MEL-2; 17.1 µM (inactive) in the assay with SN12C; 16.7 µM (inactive) with SR; 15.5 µM (inactive) in the assay with SW-620. The GI50 in the assay on TK-10 was 28.7 µM (inactive).
Turning to `CCOC(=O)C(=CNc1ccc(S(N)(=O)=O)cc1)C(=O)OCC`, the GI50 in the assay on A498, with CAKI-1, in the assay on HL-60, in the assay on HT-29, in the assay on Hs-578T and with IGROV-1 was > 100 µM (inactive) in each case. Also, the GI50 with M14, in the assay on MCF7, with MDA-MB-435, in the assay with NCI-H460, with NCI-H522 and in the assay on OVCAR-3 was > 100 µM (inactive) in each case. Moreover, the GI50 in the assay on OVCAR-5, with RXF 393, with SK-MEL-2, with SN12C, with SR and in the assay with SW-620 was > 100 µM (inactive) throughout. The GI50 in the assay on TK-10 is > 100 µM (inactive).
For `C=CCNC(=O)N1CC(C)C(=O)Nc2ccccc21` (centres undefined), the GI50 in the assay with A498, with CAKI-1, with HL-60, with HT-29, with Hs-578T and in the assay on IGROV-1 was > 100 µM (inactive) each time. For the same compound, the GI50 in the assay on KM12, in the assay on M14, with MCF7, with MDA-MB-435, with NCI-H460 and in the assay on NCI-H522 was > 100 µM (inactive) throughout. Further, the GI50 in the assay with OVCAR-3, in the assay on OVCAR-5, in the assay with RXF 393, in the assay with SK-MEL-2, in the assay with SN12C and in the assay on SR was > 100 µM (inactive) in each case. Also, the GI50 with SW-620 and with TK-10 was > 100 µM (inactive) each time.
Consider `NNC(=O)Nc1nc2ccc(NN)cc2[nH]1`, for which the GI50 in the assay on A498 is 23.6 µM (inactive); with CAKI-1, 41.7 µM (inactive); in the assay with HL-60, 12.5 µM (inactive); with HT-29 it was 34.5 µM (inactive); in the assay on Hs-578T it was 33.7 µM (inactive); with IGROV-1 it was 42 µM (inactive). Also, the GI50 in the assay on KM12 is 19.5 µM (inactive); in the assay with M14 it was 31.5 µM (inactive); with MCF7, 26.1 µM (inactive); in the assay with MDA-MB-435, 21.5 µM (inactive); with NCI-H460, 27.4 µM (inactive); in the assay with NCI-H522, 29.6 µM (inactive). Also, the GI50 was 24.5 µM (inactive) in the assay with OVCAR-3; > 100 µM (inactive) with OVCAR-5; 25 µM (inactive) with RXF 393; 44 µM (inactive) in the assay on SK-MEL-2; 42.2 µM (inactive) in the assay with SN12C; 19.5 µM (inactive) in the assay with SR. In addition, the GI50 in the assay on SW-620 was 23.8 µM (inactive); in the assay on TK-10, 36 µM (inactive).
For the compound `CCCCn1c(N)c(-c2nc3ccccc3o2)sc1=S`, the GI50 in the assay on A498 is 31.8 µM (inactive); in the assay with CAKI-1, 13.7 µM (inactive); with HL-60, > 100 µM (inactive); in the assay on HT-29 it was 27.4 µM (inactive); with Hs-578T it was 26.9 µM (inactive); in the assay with IGROV-1, 21.8 µM (inactive). In addition, the GI50 in the assay on KM12 is 12.5 µM (inactive); in the assay with M14, 23 µM (inactive); in the assay with MCF7 it was 24.7 µM (inactive); in the assay on MDA-MB-435, 12.6 µM (inactive); in the assay on NCI-H460 it was 15.8 µM (inactive); with NCI-H522, 14.2 µM (inactive). Besides, the GI50 was 16.7 µM (inactive) with OVCAR-3; 24.8 µM (inactive) with OVCAR-5; 36.7 µM (inactive) in the assay on RXF 393; 13.4 µM (inactive) in the assay on SK-MEL-2; 22.1 µM (inactive) with SN12C; 17.7 µM (inactive) with SR. The GI50 in the assay with TK-10 was 18.3 µM (inactive).
As to `Cc1ccc(-c2n[nH]c(CC#N)n2)cc1`, the GI50 in the assay with A498 is > 100 µM (inactive); in the assay with CAKI-1 it was > 100 µM (inactive); with HL-60, > 100 µM (inactive); in the assay with HT-29, > 100 µM (inactive); with Hs-578T it was 39.7 µM (inactive); in the assay with IGROV-1 it was > 100 µM (inactive). Besides, the GI50 with KM12, in the assay with M14, with MCF7, with MDA-MB-435, with NCI-H460 and with NCI-H522 was > 100 µM (inactive) each time. Further, the GI50 in the assay with OVCAR-3, with OVCAR-5, with RXF 393, with SK-MEL-2, with SN12C and in the assay with SR was > 100 µM (inactive) in each case. Moreover, the GI50 in the assay with SW-620 and in the assay on TK-10 was > 100 µM (inactive) each time.
As for `CCCCc1c(O)nc(Nc2nc3ccccc3[nH]2)[nH]c1=O`, the GI50 with A498 was > 100 µM (inactive); in the assay on CAKI-1, > 100 µM (inactive); in the assay with HL-60 it was > 100 µM (inactive); in the assay on HT-29, > 100 µM (inactive); with Hs-578T it was 23.3 µM (inactive); in the assay with IGROV-1, > 100 µM (inactive). Also, the GI50 is > 100 µM (inactive) in the assay with KM12; > 100 µM (inactive) in the assay on M14; > 100 µM (inactive) in the assay on MCF7; > 100 µM (inactive) in the assay on MDA-MB-435; > 100 µM (inactive) with NCI-H460; 57 µM (inactive) in the assay with NCI-H522. For the same compound, the GI50 in the assay with OVCAR-3, in the assay on OVCAR-5, in the assay with RXF 393, with SK-MEL-2, in the assay on SN12C and in the assay with SR was > 100 µM (inactive) in each case. In addition, the GI50 in the assay on SW-620 and in the assay with TK-10 was > 100 µM (inactive) each time.
As for `N#CC(NCc1cccc(CNC(C#N)c2ccccc2)c1)c1ccccc1` (centres undefined), the GI50 is > 100 µM (inactive) in the assay on A498; > 100 µM (inactive) in the assay with CAKI-1; 20.7 µM (inactive) in the assay with HL-60; 16.4 µM (inactive) in the assay on HT-29; 32.8 µM (inactive) in the assay with Hs-578T; 18.1 µM (inactive) with IGROV-1. Besides, the GI50 is 22.3 µM (inactive) in the assay with KM12; 26.1 µM (inactive) with M14; 19.3 µM (inactive) in the assay with MCF7; 99.8 µM (inactive) with MDA-MB-435; 40.3 µM (inactive) in the assay on NCI-H522; > 100 µM (inactive) in the assay on OVCAR-3. Moreover, the GI50 in the assay on OVCAR-5 was > 100 µM (inactive); in the assay on RXF 393, 60.4 µM (inactive); in the assay with SK-MEL-2 it was > 100 µM (inactive); in the assay with SN12C, 77.8 µM (inactive); with SR, 25.8 µM (inactive); with SW-620 it was 24.5 µM (inactive). In the assay with TK-10, the GI50 is 46.2 µM (inactive).

Values taken from ChEMBL document CHEMBL1201862, “PubChem BioAssay data set” (2004).
